In US7910593B2, “Water-soluble prodrugs” (Chugai Seiyaku Kabushiki Kaisha, priority 2004, dated 2011):

Columns and labels:
Assay type in all cases: in vitro ADME
[1] = Test Example 5: conversion of compound 2A into activated form in dog sera; details: for compound 2A (measured values, %): Test Example 5, dog sera, 50 μM, 37° C.
Description: (§1) The percentages of compound 2A produced in Example 2 being converted into an activated form in sera of humans, rats, mice, monkeys, and dogs were determined. The activated form is in a rapid equilibrium between the lactone form and the carboxylate form, which were quantified separately.
(§2) Compound 2A was incubated at 37° C. at a concentration of 50 μM in sera of humans, mice, rats, monkeys, and dogs. Incubation was terminated at a given time (0, 30, 60, 120, and 360 minutes), and the samples were analyzed by HPLC after deproteinization treatments.
(§3) Conditions for the HPLC analysis are as follows: • HPLC conditions • Column: Develosil C30-UG-3, 3 μm, 35×4.6 mm I.D • Column Temperature: constant temperature at approximately 25° C. • Mobile phase: A: 10 mM phosphate buffer (pH4.7) • B: acetonitrile • /B (min): 90/10(0)→90/10(0.4)→40/60(6)→2/98(8)→90/10(9)→90/10(15) • Flow rate: 1.0 mL/min • Detection: photodiode array detector, detection wavelength 350 nm • Amount injected: 30 μL
(§4) Generally, camptothecins in solution are in a rapid equilibrium between a structure in which the carbonyl at position 3 forms a 6-membered cyclic ester with the oxygen at position 2, and its open-ring structure. The lactone form refers to the former condition and the carboxylate form refers to the latter condition.

[2] = Test Example 5: conversion of compound 2A into activated form in mouse sera; details: for compound 2A (measured values, %): Test Example 5, mouse sera, 50 μM, 37° C.
Description: as §1, §2, §3, §4

[3] = Test Example 1: conversion of compound 2A into activated form in dog serum; details: for compound 2A (measured values, %): dog serum, 50 μM, 37° C.
Description: (§5) The percentages of compound 2A produced in Example 2 being converted into an activated form in sera of humans, mice, monkeys, and dogs were determined. The activated form is in a rapid equilibrium between the lactone form and the carboxylate form, which were quantified separately.
(§6) Compound 2A was incubated at 37° C. at a concentration of 50 μM in sera of humans, mice, monkeys, and dogs. Incubation was terminated at a given time (0, 30, 60, 120, and 360 minutes), and the samples were analyzed by HPLC after deproteinization treatments.
(§7) Conditions for the HPLC analysis are as follows: • HPLC conditions • Column: Develosil C30-UG-3, 3 μm, 50×4.6 mm I.D • Column Temperature: constant temperature at approximately 25° C. • Mobile phase: A: 10 mM phosphate buffer (pH4.7) • B: acetonitrile • /B (min): 90/10(0)→90/10(0.4)→40/60(6)→2/98(8)→90/10(9)→90/10(15)
(§8) Flow rate: 1.0 mL/min • Detection: photodiode array detector, detection wavelength 350 nm • Amount injected: 30 μL
as §4

[4] = Test Example 1: conversion of compound 2A into activated form in human serum; details: for compound 2A (measured values, %): human serum, 50 μM, 37° C.
Description: as §5, §6, §7, §8, §4

[5] = Test Example 1: conversion of compound 2A into activated form in mouse serum; details: for compound 2A (measured values, %): mouse serum, 50 μM, 37° C.
Description: as §5, §6, §7, §8, §4

[6] = Test Example 5: conversion of compound 2A into activated form in monkey sera; details: for compound 2A (measured values, %): Test Example 5, monkey sera, 50 μM, 37° C.
Description: as §1, §2, §3, §4

## CCCCCN1C=Nc2cccc3nc4c(c1c23)Cn1c-4cc2c(c1=O)COC(=O)[C@@]2(CC)OC(=O)CN(C)C(=O)CN.Cl [Compound 2A, (9S)-9-Ethyl-9-(glycyl-sarcosyloxy)-1-pentyl-1H,12H-pyrano[3″,4″:6′,7′]indolizino[1′,2′:6,5]pyrido[4,3,2-de]quinazoline-10,13(9H,15H)-dione hydrochloride]
[1]; incubation 0 minutes
  compound 2A (measured values, %): 0%
[1]; incubation 30 minutes
  compound 2A (measured values, %): 0%
[1]; incubation 60 minutes
  compound 2A (measured values, %): 0%
[1]; incubation 120 minutes
  compound 2A (measured values, %): 0%
[1]; incubation 360 minutes
  compound 2A (measured values, %): 0%
[1]; dog sera, Test Example 5
  conversion to the lactone form (in words): quickly converted to the lactone form
[2]; incubation 0 minutes
  compound 2A (measured values, %): 0%
[2]; incubation 30 minutes
  compound 2A (measured values, %): 0%
[2]; incubation 60 minutes
  compound 2A (measured values, %): 0%
[2]; incubation 120 minutes
  compound 2A (measured values, %): 0%
[2]; incubation 360 minutes
  compound 2A (measured values, %): 0%
[2]; mouse sera, Test Example 5
  conversion to the lactone form (in words): quickly converted to the lactone form
[3]; dog sera, Test Example 1
  conversion to the lactone form (in words): quickly converted to the lactone form
[3]; incubation 0 minutes
  compound 2A (measured values, %): 0%
[3]; incubation 30 minutes
  compound 2A (measured values, %): 0%
[3]; incubation 60 minutes
  compound 2A (measured values, %): 0%
[3]; incubation 120 minutes
  compound 2A (measured values, %): 0%
[3]; incubation 360 minutes
  compound 2A (measured values, %): 0%
[4]; human sera, Test Example 1
  conversion to the lactone form (in words): quickly converted to the lactone form
[4]; incubation 0 minutes
  compound 2A (measured values, %): 0%
[4]; incubation 30 minutes
  compound 2A (measured values, %): 0%
[4]; incubation 60 minutes
  compound 2A (measured values, %): 0%
[4]; incubation 120 minutes
  compound 2A (measured values, %): 0%
[4]; incubation 360 minutes
  compound 2A (measured values, %): 0%
[5]; mouse sera, Test Example 1
  conversion to the lactone form (in words): quickly converted to the lactone form
[5]; incubation 0 minutes
  compound 2A (measured values, %): 0%
[5]; incubation 30 minutes
  compound 2A (measured values, %): 0%
[5]; incubation 60 minutes
  compound 2A (measured values, %): 0%
[5]; incubation 120 minutes
  compound 2A (measured values, %): 0%
[5]; incubation 360 minutes
  compound 2A (measured values, %): 0%
[6]; incubation 0 minutes
  compound 2A (measured values, %): 0%
[6]; incubation 30 minutes
  compound 2A (measured values, %): 0%
[6]; incubation 60 minutes
  compound 2A (measured values, %): 0%
[6]; incubation 120 minutes
  compound 2A (measured values, %): 0%
[6]; incubation 360 minutes
  compound 2A (measured values, %): 0%
[6]; monkey sera, Test Example 5
  conversion to the lactone form (in words): quickly converted to the lactone form
